Test results from PMC9190014, “Structure, dynamics, and molecular inhibition of the Staphylococcus aureus m^1A22-tRNA methyltransferase TrmK” (The Journal of Biological Chemistry, 2022).
Like-named read-outs stand apart in the source and are kept apart here.

Key:
[1] = biological target: T1, m1A22-tRNA methyltransferase TrmK (SaTrmK) (Staphylococcus aureus, UniProt Q2FY13); assay: ITC; co-crystal structure at […] Å; DSF; type: binding
T1 construct: gene SAOUHSC_01661; recombinant SaTrmK, His-tag cleaved by TEVP, N-terminal glycine residue left
T1 sequence (Q2FY13 entry or part of it): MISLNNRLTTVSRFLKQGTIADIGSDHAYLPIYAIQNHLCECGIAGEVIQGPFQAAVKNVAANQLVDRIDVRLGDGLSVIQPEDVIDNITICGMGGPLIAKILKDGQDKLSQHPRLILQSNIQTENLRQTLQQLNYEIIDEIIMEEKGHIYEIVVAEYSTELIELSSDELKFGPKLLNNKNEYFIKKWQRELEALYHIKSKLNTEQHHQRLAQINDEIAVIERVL

[2] = biological target: T1, m1A22-tRNA methyltransferase TrmK (SaTrmK); assay: ITC; co-crystal structure at […] Å; DSF; type: binding; remark: listed apart in the source
[3] = biological target: T1, m1A22-tRNA methyltransferase TrmK (SaTrmK); assay: intact-mass ESI-MS and LC-MS/MS peptide mapping of covalent adduct; MTase-Glo inhibition assay; type: binding
[4] = biological target: T1, m1A22-tRNA methyltransferase TrmK (SaTrmK); assay: MTase-Glo methyltransferase assay with tRNA-Leu, single concentration; type: biochemical

Compound `Nc1ncnc2c1ncn2[C@@H]1O[C@H](CSCC[C@H](N)C(=O)O)[C@@H](O)[C@H]1O` [SAH] has a Kd [1] of 0.94 ± 0.05 µM.

For `C[S@@+](CC[C@H](N)C(=O)O)C[C@H]1O[C@@H](n2cnc3c(N)ncnc32)[C@H](O)[C@@H]1O` [SAM], the Kd [2] was 39 ± 4 µM.

For `CC1=CC(=O)c2c(O)cccc2C1=O` [plumbagin, 5-hydroxy-2-methyl-1,4-naphtoquinone], the inhibition at 5 µM [3] was about 93%.

`Nc1ncnc2c1ncn2[C@@H]1O[C@H](C[C@@H](N)CC[C@H](N)C(=O)O)[C@@H](O)[C@H]1O` [sinefungin] was tested, and the inhibition at 10 µM [4] was about 98%.
